{"source": "patent US20150202168A1", "about": "“ORAL FILM FORMULATIONS COMPRISING DAPOXETINE AND TADALAFIL” (Sanovel Ilac Sanayi Ve Ticaret Anonim Sirketi, priority 2012, published 2015)", "origin": "cited, not measured here", "key": {"[1]": {"settings": "Int J Impot Res. 2006; 18(1):104-10"}, "[2]": {"settings": "following oral administration"}, "[3]": {"system": "human body", "settings": "studies conducted"}}, "data": [{"compound": "CN1CC(=O)N2[C@H](c3ccc4c(c3)OCO4)c3[nH]c4ccccc4c3C[C@@H]2C1=O", "note": "[Tadalafil, (6R-trans)-6-(1,3-benzodioxol-5-yl)-2,3,6,7,12,12a-hexahydro-2-methyl-pyrazino[1′,2′:1,6]pyrido[3,4-b]indole-1,4-dione]", "values": [{"measurement": "solubility in water", "result": "poorly soluble"}]}, {"compound": "CN(C)[C@@H](CCOc1cccc2ccccc12)c1ccccc1", "note": "[dapoxetine]", "values": [{"measurement": "interactions with PDE5 inhibitors", "setting": "[1]", "result": "does not have pharmaceutical interactions"}, {"measurement": "binding to the plasma proteins", "setting": "[2]", "result": "almost completely"}]}, {"compound": "Mogroside", "values": [{"measurement": "toxicity to human body", "setting": "[3]", "result": "not toxic"}]}]}
